From patent US8772500B2, “TRPV3 modulators” (AbbVie Inc., priority 2011, dated 2014)

What was measured:
[1] = target: T1, human TRPV3 (Homo sapiens, UniProt Q8NET8); assay: In vitro antagonism of recombinant human TRPV3 activation (FLIPR Tetra calcium assay, 2-APB as agonist); assay type: cell-based; details: HEK293 cells stably expressing human TRPV3; 2-APB 80 μM; range class; read-out: IC50 (reported range)
T1 construct: expressed in transfected cells
T1 sequence (Q8NET8 1-790): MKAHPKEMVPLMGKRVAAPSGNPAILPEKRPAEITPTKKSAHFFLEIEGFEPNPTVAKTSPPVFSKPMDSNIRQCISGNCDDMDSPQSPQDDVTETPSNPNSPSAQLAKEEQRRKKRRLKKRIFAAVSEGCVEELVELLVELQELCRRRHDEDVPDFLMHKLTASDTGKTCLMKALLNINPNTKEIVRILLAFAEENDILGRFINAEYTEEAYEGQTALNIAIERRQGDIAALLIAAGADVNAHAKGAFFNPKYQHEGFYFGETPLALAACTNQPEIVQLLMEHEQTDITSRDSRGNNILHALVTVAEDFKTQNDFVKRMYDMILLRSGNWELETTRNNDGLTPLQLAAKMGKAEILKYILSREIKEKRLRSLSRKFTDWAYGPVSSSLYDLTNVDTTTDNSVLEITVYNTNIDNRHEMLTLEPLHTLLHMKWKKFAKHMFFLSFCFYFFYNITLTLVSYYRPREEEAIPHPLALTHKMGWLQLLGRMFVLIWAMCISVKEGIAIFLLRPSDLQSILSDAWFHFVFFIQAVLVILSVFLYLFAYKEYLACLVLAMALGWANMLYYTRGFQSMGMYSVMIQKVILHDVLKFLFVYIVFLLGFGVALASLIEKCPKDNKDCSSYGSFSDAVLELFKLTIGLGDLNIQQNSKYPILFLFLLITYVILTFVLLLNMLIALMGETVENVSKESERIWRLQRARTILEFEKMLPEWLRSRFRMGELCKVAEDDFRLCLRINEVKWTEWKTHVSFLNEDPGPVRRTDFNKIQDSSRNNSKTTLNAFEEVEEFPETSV
Method in brief: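 HEK293 cells stably expressing human TRPV3, loaded with Calcium-4 dye for 90-120 min; compound added 3 min before 2-APB at 80 μM (its EC80). Fluorescence (max minus min) over 10 min expressed as % of maximal 2-APB response without antagonist; IC50 mostly averaged from n≧2 runs.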

[2] = In vitro human microsomal stability assay; assay type: in vitro ADME; details: human, 0.5 h, 0.5 μM, pH 7.4
Method in brief: (§1)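 Stability readout reflects compound turnover by hepatic microsomes from Sprague-Dawley rats or from humans, according to the assay. Reactions at 37 °C contained NADPH, which was present in the zero-time plates as well.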

[3] = In vitro rat microsomal stability assay; assay type: in vitro ADME, rat (Sprague-Dawley); details: Sprague-Dawley, rat, 0.5 h, 0.5 μM, pH 7.4
Method in brief: as §1

IC50 [1] [µM]	HUMAN MICROSOMAL STABILITY (% REMAINING AFTER 30 MINUTES) [2] [%]	RAT MICROSOMAL STABILITY (% REMAINING AFTER 30 MINUTES) [3] [%]	SMILES
1.1 to 5	42	<0.01	COC1CC(c2ccc(Cl)c(Cl)c2)(C(O)c2ccccn2)C1 [Example 150, (S)-[cis-1-(3,4-dichlorophenyl)-3-methoxycyclobutyl](pyridin-2-yl)methanol]
1.1 to 5	32	<0.01	COC1CC(c2ccc(Cl)c(Cl)c2)([C@H](O)c2ccccn2)C1 (stereo partly drawn) [Example 151, (S)-[1-(3,4-dichlorophenyl)-3-methoxycyclobutyl](pyridin-2-yl)methanol]
5.1 to 20	>85	>85	OC(c1ccccn1)C1(c2ccc(C(F)(F)F)cc2)CNC1 (stereo not drawn) [Example 152, pyridin-2-yl{3-[4-(trifluoromethyl)phenyl]azetidin-3-yl}methanol]
5.1 to 20	49	21	CC(C)(C)OC(=O)N1CC(c2ccc(C(F)(F)F)cc2)(C(O)c2ccccn2)C1 (stereo not drawn) [Example 153, tert-butyl 3-[hydroxy(pyridin-2-yl)methyl]-3-[4-(trifluoromethyl)phenyl]-azetidine-1-carboxylate]
0.05 to 0.5	56	78	O[C@H](c1ccccn1)C1(c2ccc(C(F)(F)F)cc2)CC(F)(F)C1 [Example 154, (S)-{3,3-difluoro-1-[4-(trifluoromethyl)phenyl]cyclobutyl}(pyridin-2-yl)-methanol]
5.1 to 20	>85	76	CN1CC(c2ccc(C(F)(F)F)cc2)(C(O)c2ccccn2)C1 (stereo not drawn) [Example 155, {1-methyl-3-[4-(trifluoromethyl)phenyl]azetidin-3-yl}(pyridin-2-yl)methanol]
1.1 to 5	45	65	O[C@@H](c1ccccn1)C1(c2ccc(OC(F)(F)F)cc2)CC(F)(F)C1 [Example 159, (R)-{3,3-difluoro-1-[4-(trifluoromethoxy)phenyl]cyclobutyl}(pyridin-2-yl)methanol]
5.1 to 20	>85	60	O=C1CC(c2ccc(C(F)(F)F)cc2)(C(O)c2ccccn2)C1 (stereo not drawn) [Example 160, 3-[hydroxy(pyridin-2-yl)methyl]-3-[4-(trifluoromethyl)phenyl]cyclobutanone]
1.1 to 5	61	<0.01	OC(c1ccccn1)C1(c2ccc(C(F)(F)F)cc2)CC2(C1)OCCO2 (stereo not drawn) [Example 161, pyridin-2-yl{2-[4-(trifluoromethyl)phenyl]-5,8-dioxaspiro[3.4]oct-2-yl}-methanol]
1.1 to 5	0.02	<0.01	OC(c1ccccn1)C1(C2CCCCC2)CCC1 (stereo not drawn) [Example 162, (1-cyclohexylcyclobutyl)(pyridin-2-yl)methanol]
1.1 to 5	0.11	<0.01	OC(c1ccccn1)C1(C2CCCC2)CCC1 (stereo not drawn) [Example 163, (1-cyclopentylcyclobutyl)(pyridin-2-yl)methanol]
5.1 to 20	>85	>85	OC1CC(c2ccc(C(F)(F)F)cc2)([C@H](O)c2ccccn2)C1 (stereo partly drawn) [Example 166, 3-[(S)-hydroxy(pyridin-2-yl)methyl]-3-[4-(trifluoromethyl)phenyl]-cyclobutanol]
5.1 to 20	5.6	<0.01	OC(C1CCc2cccnc21)C1(c2ccc(Cl)c(Cl)c2)CCC1 (stereo not drawn) [Example 168, (syn)-[1-(3,4-dichlorophenyl)cyclobutyl][6,7-dihydro-5H-cyclopenta[b]-pyridin-7-yl]methanol]
5.1 to 20	<0.01	<0.01	OC(C1CCCc2cccnc21)C1(c2ccc(F)c(F)c2)CCC1 (stereo not drawn) [Example 169, (anti)-[1-(3,4-difluorophenyl)cyclobutyl][5,6,7,8-tetrahydroquinolin-8-yl]-methanol]
1.1 to 5	0.12	<0.01	OC(C1CCCc2cccnc21)C1(c2ccc(OC(F)(F)F)cc2)CCC1 (stereo not drawn) [Example 177, (anti)-5,6,7,8-tetrahydroquinolin-8-yl{1-[4-(trifluoromethoxy)phenyl]-cyclobutyl}methanol]
1.1 to 5	<0.01	<0.01	OC(C1CCCc2cccnc21)C1(c2cccc(C(F)(F)F)c2)CCC1 (stereo not drawn) [Example 179, (anti)-5,6,7,8-tetrahydroquinolin-8-yl{1-[3-(trifluoromethyl)phenyl]-cyclobutyl}methanol]
1.1 to 5	<0.01	<0.01	OC(C1CCCc2cccnc21)C1(c2ccc(Cl)c(Cl)c2)CCC1 (stereo not drawn) [Example 181, (anti)-[1-(3,4-dichlorophenyl)cyclobutyl][5,6,7,8-tetrahydroquinolin-8-yl]-methanol]
1.1 to 5	<0.01	<0.01	OC(C1CCCc2cccnc21)C1(c2ccc(C(F)(F)F)cc2)CCC1 (stereo not drawn) [Example 183, (anti)-5,6,7,8-tetrahydroquinolin-8-yl{1-[4-(trifluoromethyl)phenyl]-cyclobutyl}methanol]
5.1 to 20	>85	>85	OC1CC(c2ccc(C(F)(F)F)cc2)(C(O)c2ccccn2)C1 [Example 200, cis-3-[(S)-hydroxy(pyridin-2-yl)methyl]-3-[4-(trifluoromethyl)phenyl]-cyclobutanol]
5.1 to 20	73	>85	OC1CC(c2ccc(C(F)(F)F)cc2)(C(O)c2ccccn2)C1 [Example 201, trans-3-[(S)-hydroxy(pyridin-2-yl)methyl]-3-[4-(trifluoromethyl)phenyl]-cyclobutanol]
5.1 to 20	73	<0.01	OC(c1ccccn1)C1(c2ccc(OC(F)(F)F)cc2)CC2(C1)OCCO2 (stereo not drawn) [Example 202, pyridin-2-yl{2-[4-(trifluoromethoxy)phenyl]-5,8-dioxaspiro[3.4]oct-2-yl}-methanol]
5.1 to 20	>85	74	CC1(O)CC(c2ccc(OC(F)(F)F)cc2)(C(O)c2ccccn2)C1 [Example 203, trans-3-[(S)-hydroxy(pyridin-2-yl)methyl]-1-methyl-3-[4-(trifluoromethoxy)-phenyl]cyclobutanol]
1.1 to 5	>85	>85	NC1CCCC1C(O)C1(c2cccc(C(F)(F)F)c2)CCC1 (stereo not drawn) [Example 204, (2-aminocyclopentyl){1-[3-(trifluoromethyl)phenyl]cyclobutyl}methanol]
1.1 to 5	>85	>85	NC1CCCC1C(O)C1(c2ccc(C(F)(F)F)cc2)CCC1 (stereo not drawn) [Example 205, (2-aminocyclopentyl){1-[4-(trifluoromethyl)phenyl]cyclobutyl}methanol]
1.1 to 5	83	62	NC1CCCC1C(O)C1(c2ccc(OC(F)(F)F)cc2)CCC1 (stereo not drawn) [Example 206, (2-aminocyclopentyl){1-[4-(trifluoromethoxy)phenyl]cyclobutyl}methanol]
